Source: patent publication US20240041884A1, “Pharmaceutical Combinations for Treating Cancer” (Cellestia Biotech AG, priority 2020, published 2024)

Experiments:
[1] = test system: Primary human T cell acute lymphoblastic leukemia with activated NOTCH pathway; assay: Efficacy in mice bearing primary human T-ALL, survival; type: in vivo; conditions: NSG mice; 6-(4-(tert-butyl)phenoxy)pyridin-3-amine 40 mg/kg QD5 until termination, Venetoclax 25 mg/kg QD for 7 days
Protocol: Efficacy of 6-(4-(tert-butyl)phenoxy)pyridin-3-amine+Venetoclax combination Primary human T cell acute lymphoblastic leukemia with activated NOTCH pathway were intravenously infused into NSG mice. After 7 days of disease establishment, leukemia-bearing mice were treated as below: • 1. Group 1: Vehicle treatment • 2. Group 2: 6-(4-(tert-butyl)phenoxy)pyridin-3-amine treatment at 40 mg/kg, QD5 until termination of the group • 3. Group 3: Venetoclax treatment at 25 mg/kg, QD for 7 days only • 4. Group 4: Venetoclax at 25 mg/kg , QD for first 7 days+6-(4-(tert-butyl)phenoxy)pyridin-3-amine at 40 mg/kg, QD5 until termination of the group.
Animals were monitored for survival on a daily basis.

[2] = test system: ACC PDX (human adenoid cystic carcinoma patient-derived xenograft); assay: In vivo efficacy in ACC PDX model, tumor growth inhibition; conditions: ACC PDX in athymic nude mice; for Percentange tumor growth inhibition (TGI): 6-(4-(tert-butyl)phenoxy)pyridin-3-amine 60 mg/kg SC qdx5, Navitoclax 50 mg/kg PO qdx5; for effect on ACC PDX tumor growth: doses of table 5, compared to vehicle
Description: In Vivo Efficacy Evaluation of 6-(4-(tert-butyl)phenoxy)pyridin-3-amine and BCL-2 inhibitor ABT-263 (Navitoclax) in a NOTCH! and BCL-2 Positive Patient-Derived Xenograft (ACC PDX) Model Representing Human Adenoid Cystic Carcinoma in Immune-Deficient Mice
ACC PDX model was implanted into Immuno deficient mice and upon reaching a tumor volume of 150-300 mm^3, animals were randomized for treatment with different agents as indicated below.
Athymic mice transplanted with ACC PDX model were randomized into 4 treatment cohorts. Vehicle treatment • 2. 6-(4-(tert-butyl)phenoxy)pyridin-3 -amine • 3. ABT-263 • 4. 6-(4-(tert-butyl)phenoxy)pyridin-3-amine+ABT-263
Tumor volume was measured every 3-4 days. Mean tumor volume and SEM was calculated and Tumor growth inhibition was calculated using the formula TGI=1−(TXFavg−TXiavg)/(Cfavg−Ciavg), where TX is drug treatment group, favg=average tumor volume at treatment end, iavg=average tumor volume upon treatment initiation, C=Vehile treatment group.

HCC1187 cells = assay: Single agent screening, alamarBlue proliferation assay; type: cell-based; conditions: Homo sapiens, HCC1187, 72 hours, read-out: IC50 (μM) values of drugs used as single agent
Protocol: (§1) To determine effect of 6-(4-(tert-butyl)phenoxy)pyridin-3-amine with inhibitors of anti-apoptotic proteins, drugs listed in table 1 were used.
(§2) Cells were treated with each of the listed compounds in table 1 as single agent with a concentration ranging from 10 nM to 10 μM in duplicates. Following treatment for 72 hours, cells were incubated with alamarBlue® for 4 hours and cell proliferation readout was taken using Infinite® F500 (Tecan) plate reader. All volumes (cells and alamarBlue®) were dispensed using Multidrop Combi dispenser using a standard cassette (Speed MEDIUM).
(§3) AlamarBlue® viability assay: alamarBlue® proliferation assays were performed to determine the growth kinetics of compound treated cells. alamarBlue® consists of a cell permeable substrate resazurin. In metabolically active and proliferating cells, resazurin is converted to resorufin due to an intrinsic reducing power of live cells and produces a red fluorescence. Therefore, production of resorufin serves as an indicator of the viability of the cell population. Proliferation assays were performed by seeding 1500 cells/well in 384 well plate format. Cells were treated in duplicates with pre-determined concentration of compounds as a single agent or in combination with 6-(4-(tert-butyl)phenoxy)pyridin-3-amine for 72 hours. To determine growth kinetics, alamarBlue® (Invitrogen) was added to each well and incubated for 4 hours. alamarBlue® readout was taken using Infinite® F500 (Tecan) plate reader.
(§4) Data analysis for individual compounds: To determine anti-proliferative activity and IC50 values of individual compounds (listed in table 1) against HCC1187, MCF-7 and RPMI-8402 cells, data were analyzed using GraphPad Prism.

RPMI-8402 cells = assay: as above; type: cell-based; conditions: Homo sapiens, RPMI-8402, 72 hours, read-out: IC50 (μM) values of drugs used as single agent
Protocol: as §1, §2, §3, §4

MCF-7 cells = assay: as above; type: cell-based; conditions: Homo sapiens, MCF7, MCF-7, 72 hours, read-out: IC50 (μM) values of drugs used as single agent
Protocol: as §1, §2, §3, §4

blood cells = assay: Safety evaluation in wildtype mice, whole blood analysis; type: in vivo; conditions: 4 consecutive days, day 5 bleed, Venetoclax 12.5, 25, 50 mg/kg, 6-(4-(tert-butyl)phenoxy)pyridin-3-amine 60 mg/kg
Protocol: Wildtype mice were weighed and dosed for 4 consecutive days as below: • 1. Group 1: Vehicle+Vehicle • 2. Group 2: Vehicle+12.5 mg/kg Venetoclax • 3. Group 3: Vehicle+25 mg/k Venetoclax • 4. Group 4: Vehicle+50 mg/kg Venetoclax • 5. […] On day 5, animals were tail vein bled and whole blood analysis was carried out to determine numbers of different cells.

Row | SMILES | Number of days by which 100% animals died due to leukemia [1] [days] | Percentange tumor growth inhibition (TGI) [2] [%] | effect on ACC PDX tumor growth [2] | IC50 (HCC1187 cells) [µM] | IC50 (RPMI-8402 cells) [µM] | IC50 (MCF-7 cells) [µM] | effect on blood cells (whole blood analysis) (blood cells)
1 | CC(C)(C)c1ccc(Oc2ccc(N)cn2)cc1 [6-(4-(tert-butyl)phenoxy)pyridin-3-amine] | 30 | 37 | induces tumor growth retardation compared to vehicle treated group |  |  |  | 
2 | CC1(C)CCC(c2ccc(Cl)cc2)=C(CN2CCN(c3ccc(C(=O)NS(=O)(=O)c4ccc(N[C@H](CCN5CCOCC5)CSc5ccccc5)c(S(=O)(=O)C(F)(F)F)c4)cc3)CC2)C1 [ABT-263 (Navitoclax), 4-[4-[[2-(4-chlorophenyl)-5,5-dimethylcydohexen-1-yl]methyl]piperazin-1-yl]-N-[4-[[(2R)-4-morpholin-4-yl-1-phenylsulfonylbutan-2-yl]amino]-3-(trifluoromethylsulfonyl)phenyl]sulfonylbenzamide] |  | 57 | induces tumor growth retardation compared to vehicle treated group | 20 | 5.5 | 21 | 
3 | CC1(C)CCC(CN2CCN(c3ccc(C(=O)NS(=O)(=O)c4ccc(NCC5CCOCC5)c([N+](=O)[O-])c4)c(Oc4cnc5[nH]ccc5c4)c3)CC2)=C(c2ccc(Cl)cc2)C1 [Venetoclax, 4-[4-[[2-(4-chlorophenyl)-4,4-dimethylcydohexen-1-yl]methyl]piperazin-1-yl]-N-[3-nitro-4-(oxan-4-ylmethylamino)phenyl]sulfonyl-2-(1H-pyrrolo[2,3-b]pyridin-5-yloxy)benzamide] | 28 |  |  |  |  |  | decrease of white blood cells, lymphocytes, neutrophils, monocytes and mean platelet mass
4 | Cc1c(-c2c(-c3ccc(F)o3)sc3ncnc(O[C@H](Cc4ccccc4OCc4ccnn4CC(F)(F)F)C(=O)O)c23)ccc(OCCN2CCN(C)CC2)c1Cl (atropisomer, axis not shown) [S63845, (2R)-2-[5-[3-chloro-2-methyl-4-[2-(4-methylpiperazin-1-yl)ethoxy]phenyl]-6-(5-fluorofuran-2-yl)thieno[2,3-d]pyrimidin-4-yl]oxy-3-[2-[[2-(2,2,2-trifluoroethyl)pyrazol-3-yl]methoxy]phenyl]propanoic acid] |  |  |  | 0.24 | 0.04 | 0.37 | 
